Assay results: ChEMBL document CHEMBL1131704, “trans-2,6-,3,6- and 4,6-diaza-5,6,6a,7,8,12b-hexahydro-benzo[c]phenanthrene-10,11- diols as dopamine agonists” (Bioorg Med Chem Lett, 1999)

Columns and labels:
[1] = biological target: T1, D(1A) dopamine receptor (Homo sapiens, UniProt P21728); assay: Binding affinity to Dopamine receptor D1 by using radioligand [125I]SCH-23982 in HEK cells; assay type: cell-based, HEK293
[2] = biological target: T1, D(1A) dopamine receptor; assay: Potency in adenylate cyclase functional assay against Dopamine receptor D1
[3] = biological target: T1, D(1A) dopamine receptor; assay: Intrinsic activity relative against Dopamine receptor D1.; assay type: functional
[4] = biological target: D(2) dopamine receptor (Homo sapiens, UniProt P14416); assay: Binding affinity to human Dopamine receptor D2 by using radioligand [3H]spiperone in LTK cells; assay type: cell-based
D(2) dopamine receptor, sequence (P14416 whole entry): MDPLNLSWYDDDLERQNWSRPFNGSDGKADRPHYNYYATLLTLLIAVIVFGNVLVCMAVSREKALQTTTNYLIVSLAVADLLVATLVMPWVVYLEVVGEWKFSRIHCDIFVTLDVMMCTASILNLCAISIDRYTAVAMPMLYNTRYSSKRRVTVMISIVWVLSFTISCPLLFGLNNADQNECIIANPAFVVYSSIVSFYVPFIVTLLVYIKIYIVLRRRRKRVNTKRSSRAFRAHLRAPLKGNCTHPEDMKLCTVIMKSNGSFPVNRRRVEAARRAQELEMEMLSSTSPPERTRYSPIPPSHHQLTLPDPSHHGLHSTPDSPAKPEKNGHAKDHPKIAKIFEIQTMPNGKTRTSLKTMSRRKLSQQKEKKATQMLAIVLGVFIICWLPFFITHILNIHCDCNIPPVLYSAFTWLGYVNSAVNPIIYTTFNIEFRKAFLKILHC

[5] = biological target: Dopamine D1 and D2 receptor (Homo sapiens) (UniProt P14416+P21728); assay: Ratio of Ki for human dopamine-2(D-2) and dopamine-1(D-1) receptors; assay type: protein assay
Dopamine D1 and D2 receptor (Homo sapiens), sequence (P14416 whole entry, looked up): as the sequence (P14416 whole entry) above
Dopamine D1 and D2 receptor (Homo sapiens), sequence (P21728 whole entry, looked up): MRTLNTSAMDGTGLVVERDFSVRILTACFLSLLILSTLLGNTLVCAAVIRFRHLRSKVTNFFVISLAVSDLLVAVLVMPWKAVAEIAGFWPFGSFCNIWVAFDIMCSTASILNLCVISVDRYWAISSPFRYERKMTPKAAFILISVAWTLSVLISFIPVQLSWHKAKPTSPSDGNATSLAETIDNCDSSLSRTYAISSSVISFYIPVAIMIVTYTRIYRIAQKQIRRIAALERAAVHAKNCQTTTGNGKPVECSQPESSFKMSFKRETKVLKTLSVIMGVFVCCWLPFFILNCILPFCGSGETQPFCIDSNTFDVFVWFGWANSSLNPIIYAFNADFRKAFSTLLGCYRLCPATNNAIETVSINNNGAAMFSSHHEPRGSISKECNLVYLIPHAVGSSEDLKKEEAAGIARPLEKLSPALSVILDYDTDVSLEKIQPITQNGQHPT

T1 sequence (P21728 whole entry): as the sequence (P21728 whole entry, looked up) above

| Compound | Ki [1] [nM] | EC50 [2] [nM] | Intrinsic activity [3] [%] | Ki [4] [nM] | Ratio [5] |
| --- | --- | --- | --- | --- | --- |
| Oc1cc2c(cc1O)[C@H]1c3ccncc3CN[C@@H]1CC2 | 140 | 38 | 131 | 4400 | 31 |
| Oc1cc2c(cc1O)[C@H]1c3ccc(F)nc3CN[C@@H]1CC2 | 180 | 18 | 141 | 2200 | 12 |
| Cc1cncc2c1CN[C@@H]1CCc3cc(O)c(O)cc3[C@@H]21 | 1100 | 230 | 75 | 400 | 0.36 |
| Oc1cc2c(cc1O)[C@H]1c3cnccc3CN[C@@H]1CC2 | 1100 | 320 | 81 | 1300 | 1 |
| Cc1cnc2c(c1)[C@@H]1c3cc(O)c(O)cc3CC[C@H]1NC2 | 240 | 110 | 156 | 12000 | 50 |
| Oc1cc2c(cc1O)[C@H]1c3cc4c(nc3CN[C@@H]1CC2)CCCC4 | 560 | 63 | 136 | 3600 | 6 |
| CCCc1cc2c(s1)CN[C@@H]1CCc3cc(O)c(O)cc3[C@@H]21 | – | – | 125 | – | 14 |
| CCCCc1cnc2c(c1)[C@@H]1c3cc(O)c(O)cc3CC[C@H]1NC2 | 890 | 180 | 118 | 1900 | 2 |
| Cc1ccc2c(n1)CN[C@@H]1CCc3cc(O)c(O)cc3[C@@H]21 | 140 | 23 | 121 | 1400 | 10 |
| Oc1cc2c(cc1O)[C@H]1c3cncc(F)c3CN[C@@H]1CC2 | 390 | 800 | 126 | 890 | 2 |
| Oc1cc2c(cc1O)[C@H]1c3ccccc3CN[C@@H]1CC2 | – | – | 121 | – | – |
| Cc1cc2c(nc1C)CN[C@@H]1CCc3cc(O)c(O)cc3[C@@H]21 | 280 | 120 | 134 | 9100 | 33 |
| COc1ccc2c(n1)CN[C@@H]1CCc3cc(O)c(O)cc3[C@@H]21 | 49 | 8.8 | 114 | 520 | 11 |
| Oc1cc2c(cc1O)[C@H]1c3cccnc3CN[C@@H]1CC2 | 65 | 6.7 | 125 | 2500 | 38 |
| CCCc1ccc2c(n1)CN[C@@H]1CCc3cc(O)c(O)cc3[C@@H]21 | 45 | 8.6 | 116 | 450 | 10 |
